From PubChem BioAssay AID1963851 (Molecular Pharmacology Branch, DTP, NCI, 2024)

Tested on: 188146-221-R-J1-PDC complex spheroid viability
Test: Anticancer human tumor 188146-221-R-J1-PDC patient-derived colon adenocarcinoma cell line growth inhibition [POLQ]
Settings: for IC50: curve of first compound; for viability, T/C: stronger effect = lower value
How it was run: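 Growth inhibition in 3D: complex spheroids (tumor PDC, HUVEC, MSC) treated with POLQ inhibitor combinations; where Cmax unknown, highest tested concentration 10 microM, except SN-38 at 1 microM.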

[1] = second compound 0.0316 µM, first compound 0.0316 µM
[2] = second compound 0.0316 µM, first compound 0.1 µM
[3] = second compound 0.0316 µM, first compound 0.316 µM
[4] = second compound 0.0316 µM, first compound 1 µM
[5] = second compound 0.0316 µM, first compound 3.16 µM
[6] = second compound 0.0316 µM, first compound 10 µM
[7] = second compound 0.1 µM, first compound 0.0316 µM
[8] = second compound 0.1 µM, first compound 0.1 µM
[9] = second compound 0.1 µM, first compound 0.316 µM
[10] = second compound 0.1 µM, first compound 1 µM
[11] = second compound 0.1 µM, first compound 3.16 µM
[12] = second compound 0.1 µM, first compound 10 µM
[13] = second compound 0.316 µM, first compound 0.0316 µM
[14] = second compound 0.316 µM, first compound 0.1 µM
[15] = second compound 0.316 µM, first compound 0.316 µM
[16] = second compound 0.316 µM, first compound 1 µM
[17] = second compound 0.316 µM, first compound 3.16 µM
[18] = second compound 0.316 µM, first compound 10 µM
[19] = second compound 1 µM, first compound 0.0316 µM
[20] = second compound 1 µM, first compound 0.1 µM
[21] = second compound 1 µM, first compound 0.316 µM
[22] = second compound 1 µM, first compound 1 µM
[23] = second compound 1 µM, first compound 3.16 µM
[24] = second compound 1 µM, first compound 10 µM
[25] = second compound 3.16 µM, first compound 0.0316 µM
[26] = second compound 3.16 µM, first compound 0.1 µM
[27] = second compound 3.16 µM, first compound 0.316 µM
[28] = second compound 3.16 µM, first compound 1 µM
[29] = second compound 3.16 µM, first compound 3.16 µM
[30] = second compound 3.16 µM, first compound 10 µM
[31] = second compound 10 µM, first compound 0.0316 µM
[32] = second compound 10 µM, first compound 0.1 µM
[33] = second compound 10 µM, first compound 0.316 µM
[34] = second compound 10 µM, first compound 1 µM
[35] = second compound 10 µM, first compound 3.16 µM
[36] = second compound 10 µM, first compound 10 µM
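Note: spheroids exposed to compounds for seven days.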
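Throughout, for viability, T/C: 100% = DMSO vehicle control viability.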

O=C(Nc1ccc(O)c(NS(=O)(=O)c2ccc(F)cc2)c1)c1ccc(-c2ccccc2)cc1 + COC1C(OC(N)=O)C(O)C(Oc2ccc3c(O)c(NC(=O)c4ccc(O)c(CC=C(C)C)c4)c(=O)oc3c2C)OC1(C)C
IC50 (second compound 0.0316 µM): > 10 µM
IC50 (second compound 0.1 µM): > 10 µM
IC50 (second compound 0.316 µM): > 10 µM
IC50 (second compound 1 µM): > 10 µM
IC50 (second compound 3.16 µM): > 10 µM
IC50 (second compound 10 µM): > 10 µM
viability, T/C [1]: 104%
viability, T/C [2]: 95%
viability, T/C [3]: 99.7%
viability, T/C [4]: 97.6%
viability, T/C [5]: 86.5%
viability, T/C [6]: 89%
viability, T/C [7]: 106%
viability, T/C [8]: 104%
viability, T/C [9]: 96.5%
viability, T/C [10]: 99.4%
viability, T/C [11]: 98.8%
viability, T/C [12]: 75.2%
viability, T/C [13]: 95%
viability, T/C [14]: 108%
viability, T/C [15]: 101%
viability, T/C [16]: 100%
viability, T/C [17]: 88.2%
viability, T/C [18]: 69.4%
viability, T/C [19]: 102%
viability, T/C [20]: 96.2%
viability, T/C [21]: 105%
viability, T/C [22]: 101%
viability, T/C [23]: 94.4%
viability, T/C [24]: 79.5%
viability, T/C [25]: 105%
viability, T/C [26]: 106%
viability, T/C [27]: 108%
viability, T/C [28]: 88.7%
viability, T/C [29]: 97.4%
viability, T/C [30]: 73.1%
viability, T/C [31]: 96.9%
viability, T/C [32]: 95.8%
viability, T/C [33]: 113%
viability, T/C [34]: 102%
viability, T/C [35]: 103%
viability, T/C [36]: 83.3%

CC1COCCN1c1cc(C2(S(C)(=N)=O)CC2)nc(-c2ccnc3[nH]ccc23)n1 (stereo unspecified) + Nc1ccc(C#CCN(C(=O)Cc2ncc(C(F)(F)F)cc2C(F)(F)F)c2ccc(F)cc2)nn1
IC50 (second compound 0.0316 µM): 4.63 µM
IC50 (second compound 0.1 µM): 4.5 µM
IC50 (second compound 0.316 µM): 4.59 µM
IC50 (second compound 1 µM): 4.55 µM
IC50 (second compound 3.16 µM): 4.66 µM
IC50 (second compound 10 µM): 4.11 µM
viability, T/C [1]: 105%
viability, T/C [2]: 110%
viability, T/C [3]: 95.7%
viability, T/C [4]: 100%
viability, T/C [5]: 61.2%
viability, T/C [6]: 27.2%
viability, T/C [7]: 106%
viability, T/C [8]: 92.6%
viability, T/C [9]: 109%
viability, T/C [10]: 92.1%
viability, T/C [11]: 60.5%
viability, T/C [12]: 26.9%
viability, T/C [13]: 110%
viability, T/C [14]: 109%
viability, T/C [15]: 99.7%
viability, T/C [16]: 101%
viability, T/C [17]: 61.9%
viability, T/C [18]: 24.8%
viability, T/C [19]: 95.1%
viability, T/C [20]: 89.7%
viability, T/C [21]: 111%
viability, T/C [22]: 89.2%
viability, T/C [23]: 63.3%
viability, T/C [24]: 22.2%
viability, T/C [25]: 103%
viability, T/C [26]: 109%
viability, T/C [27]: 93.3%
viability, T/C [28]: 82.7%
viability, T/C [29]: 65.3%
viability, T/C [30]: 24.1%
viability, T/C [31]: 107%
viability, T/C [32]: 99.6%
viability, T/C [33]: 101%
viability, T/C [34]: 90%
viability, T/C [35]: 58.1%
viability, T/C [36]: 22.1%

CNCc1ccc(-c2[nH]c3cc(F)cc4c3c2CCNC4=O)cc1 + Cc1cccc(N(C)C(=O)C2C(O)CCN2c2nc(C)cc(C(F)(F)F)c2C#N)c1
IC50 (second compound 0.0316 µM): > 10 µM
IC50 (second compound 0.1 µM): > 10 µM
IC50 (second compound 0.316 µM): > 10 µM
IC50 (second compound 1 µM): > 10 µM
IC50 (second compound 3.16 µM): > 10 µM
IC50 (second compound 10 µM): > 10 µM
viability, T/C [1]: 98.6%
viability, T/C [2]: 103%
viability, T/C [3]: 101%
viability, T/C [4]: 97.3%
viability, T/C [5]: 114%
viability, T/C [6]: 105%
viability, T/C [7]: 108%
viability, T/C [8]: 98.6%
viability, T/C [9]: 102%
viability, T/C [10]: 104%
viability, T/C [11]: 108%
viability, T/C [12]: 112%
viability, T/C [13]: 112%
viability, T/C [14]: 105%
viability, T/C [15]: 106%
viability, T/C [16]: 103%
viability, T/C [17]: 106%
viability, T/C [18]: 108%
viability, T/C [19]: 109%
viability, T/C [20]: 103%
viability, T/C [21]: 97.7%
viability, T/C [22]: 109%
viability, T/C [23]: 100%
viability, T/C [24]: 110%
viability, T/C [25]: 112%
viability, T/C [26]: 112%
viability, T/C [27]: 95.1%
viability, T/C [28]: 84.1%
viability, T/C [29]: 112%
viability, T/C [30]: 110%
viability, T/C [31]: 99.4%
viability, T/C [32]: 83.2%
viability, T/C [33]: 100%
viability, T/C [34]: 93.8%
viability, T/C [35]: 106%
viability, T/C [36]: 101%
